Assay results published in publication PMC9065877, “Safety, tolerability and pharmacokinetics of the oligomer modulator anle138b with exposure levels sufficient for therapeutic efficacy in a murine Parkinson model: A randomised, double-blind, placebo-controlled phase 1a trial” (EBioMedicine, 2022).

How the values were obtained:
[1] = Oral pharmacokinetics, overall statements across SAD, MAD and FES parts; format: in vivo, human
Procedure: As a safety precaution, sentinel dosing was performed for all SAD and MAD cohorts. In SAD, subjects received a single dose of anle138b or placebo after fasting from all food and drink (except water) for a minimum of 8 h prior to dosing. The dosing in the four SAD-cohorts were 50 mg, 100 mg, 200 mg and 300 mg of free anle138b equivalent, respectively. In the MAD part, participants received anle138b or placebo once daily (QD) for 7 days after fasting from all food and drink (except water) for a minimum of 8 h prior to dosing. The dosing in the three MAD-cohorts was 100 mg, 200 mg and 300 mg of free anle138b equivalent, respectively. Post dosing mouth and hand checks were conducted to ensure the capsules were swallowed. In-study decisions regarding continuation and dose escalation were made by the safety advisory committee (SAC) comprising the principal investigator, the sponsor's medical monitor and a PK expert. For dose escalation to proceed, data needed to be available from a minimum of 6 subjects per cohort with completed per protocol safety and PK assessments up to 48 h after dosing to ensure at least 4 subjects had received active IMP. The decision to proceed to the next higher dose level was based on safety, tolerability and available PK data to 48 h post-dose. The following data were required: Adverse events, vital signs, safety laboratory, ECG, physical examinations, plasma concentrations of anle138b with interim PK parameter estimations (Tmax, Cmax, AUC(0-24), AUC(0-tau), AUC(0-last) and T½, where applicable). Data were provided to the SAC in accordance with Quotient Sciences’ standard operating procedure (SOP) on interim dose decision-making and dose escalation. […]
Secondary outcome measures were the oral PK of single (SAD) and multiple (MAD) ascending doses of anle138b in the fasted state as well as the effect of co-administration with food on the PK of anle138b. […] Time point of last quantifiable data was seen to increase with an increase in dose as follows: SAD: from the 50mg dose (subjects ranged between 8-24h) to the 300mg dose (subjects ranged between 36-48h). […]

[2] = Blood levels of anle138b after chronic dosing (14 days) in food pellets; format: in vivo; set-up: dose or concentration left out as unconfirmed; details: mouse, oral, doses of ≥11·, read-out: AUC0-24 exposure
Procedure: Based on the analysis of blood levels of anle138b after chronic dosing (14 days) using the same formulation (anle138b in food pellets), doses of ≥11·1 mg/kg/day correspond to an AUC0-24 exposure of ≥ 300 ng*h/ml.

[3] = animal studies; cited from earlier work

Brc1cccc(-c2cc(-c3ccc4c(c3)OCO4)n[nH]2)c1 [anle138b, 3-(1,3-benzodioxol-5-yl)-5-(3-bromophenyl)-1H-pyrazole]
half-life ([1]; human, plasma, oral, authors' conclusion from SAD data, read-out: true T½ of anle138b in human plasma): ≥ 10 h
practical elimination half-time ([1]; overall PK data): ~12 h
Bioavailability (in words) ([1]; overall PK data, fasted and fed conditions): good bioavailability
AUC(0-t) [2]: ≥ 300 ng·h/mL
Levels of anle138b in the brain relative to plasma [3]: 5 fold
Oral bioavailability (in words) [3]: high oral bioavailability
